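Five concentrations, 48 hours, 96-well plates. GI50: concentration for 50% inhibition of growth. Definition used: TGI = concentration required for complete inhibition of growth.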
Experiments:
Experiment in all cases: NCI anticancer screen, dose series, 48 h; in the data active means GI50 below about 0.43 µM; inactive means the rest
[1] = tested on: 786-0 renal
[2] = tested on: A498 renal
[3] = tested on: A549 NSCLC
[4] = tested on: ACHN renal
[5] = tested on: BT-549 breast
[6] = tested on: CAKI-1 renal
[7] = tested on: CCRF-CEM leukemia
[8] = tested on: COLO 205 colon
[9] = tested on: DU-145 prostate
[10] = tested on: EKVX NSCLC
[11] = tested on: HCC-2998 colon
[12] = tested on: HCT-15 colon
[13] = tested on: HL-60(TB) leukemia
[14] = tested on: HOP-62 NSCLC
[15] = tested on: HOP-92 NSCLC
[16] = tested on: HS 578T breast
[17] = tested on: HT29 colon
[18] = tested on: IGROV1 ovarian
[19] = tested on: K-562 leukemia
[20] = tested on: LOX IMVI melanoma
[21] = tested on: MALME-3M melanoma
[22] = tested on: MCF7 breast
[23] = tested on: MDA-MB-231 breast
[24] = tested on: MDA-MB-435
[25] = tested on: MOLT-4 leukemia
[26] = tested on: NCI-H226 lung
[27] = tested on: NCI-H23 lung
[28] = tested on: NCI-H460 lung
[29] = tested on: NCI-H522 lung
[30] = tested on: NCI/ADR-RES ovarian
[31] = tested on: OVCAR-3 ovarian
[32] = tested on: OVCAR-4 ovarian
[33] = tested on: OVCAR-5 ovarian
[34] = tested on: OVCAR-8 ovarian
[35] = tested on: PC-3 prostate
[36] = tested on: RPMI-8226 leukemia
[37] = tested on: RXF 393 renal
[38] = tested on: SF-268 CNS
[39] = tested on: SF-295 CNS
[40] = tested on: SF-539 CNS
[41] = tested on: SK-MEL-2 melanoma
[42] = tested on: SK-MEL-28 melanoma
[43] = tested on: SK-MEL-5 melanoma
[44] = tested on: SK-OV-3 ovarian
[45] = tested on: SN12C renal
[46] = tested on: SNB-19 CNS
[47] = tested on: SNB-75 CNS
[48] = tested on: SR leukemia
[49] = tested on: SW-620 colon
[50] = tested on: T-47D breast
[51] = tested on: TK-10 renal
[52] = tested on: U251 CNS
[53] = tested on: UACC-257 melanoma
[54] = tested on: UACC-62 melanoma
[55] = tested on: UO-31 renal

COc1ccc(/C=C2\CC(C)CC3C2=NN(c2ccccc2)C3c2ccc(OC)c(OC)c2)cc1OC (stereo not given)
48.6 µM: TGI [4]
15.3 µM: TGI [52]
16.1 µM: TGI [17]
42.6 µM: TGI [22]
17 µM: TGI [14]
27.2 µM: TGI [27]
5.4 µM: TGI [19]
9.51 µM: TGI [30]
37.3 µM: TGI [1]
92.4 µM: TGI [25]
12.4 µM: TGI [28] | TGI [48]
4.38 µM: TGI [12]
6.94 µM: TGI [43]
> 100 µM: TGI [3] | TGI [6] | TGI [7] | TGI [8] | TGI [9] | TGI [10] | TGI [15] | TGI [16] | TGI [18] | TGI [21] | TGI [24] | TGI [29] | TGI [31] | TGI [32] | TGI [34] | TGI [35] | TGI [36] | TGI [37] | TGI [41] | TGI [44] | TGI [46] | TGI [49] | TGI [50] | TGI [51] | TGI [53] | TGI [55]
24.9 µM: TGI [40]
79.7 µM: TGI [5]
37.2 µM: TGI [38]
3.13 µM: TGI [11]
12.1 µM: TGI [33]
8.7 µM: TGI [13]
9.75 µM: TGI [26]
57.6 µM: TGI [39]
13.2 µM: TGI [23]
72.7 µM: TGI [2]
18.3 µM: TGI [42]
inactive: GI50 [1] 5.24 µM | GI50 [2] 14.5 µM | GI50 [3] 5.72 µM | GI50 [4] 4.48 µM | GI50 [5] 4.58 µM | GI50 [6] 6.47 µM | GI50 [7] 4.02 µM | GI50 [8] 4.67 µM | GI50 [9] 4.17 µM | GI50 [10] 5.61 µM | GI50 [11] 1.69 µM | GI50 [12] 1.98 µM | GI50 [13] 2.76 µM | GI50 [14] 4.87 µM | GI50 [15] 5.32 µM | GI50 [16] > 100 µM | GI50 [17] 3.18 µM | GI50 [18] 5.37 µM | GI50 [19] 1.85 µM | GI50 [20] 2.19 µM | GI50 [21] 8.64 µM | GI50 [22] 3.23 µM | GI50 [23] 3.24 µM | GI50 [24] 3.2 µM | GI50 [25] 2.69 µM | GI50 [26] 3.09 µM | GI50 [27] 4.49 µM | GI50 [28] 3.09 µM | GI50 [29] 4.83 µM | GI50 [30] 2.71 µM | GI50 [31] 3.71 µM | GI50 [32] 3.65 µM | GI50 [33] 3.16 µM | GI50 [34] 6.78 µM | GI50 [35] 6.32 µM | GI50 [36] 3.38 µM | GI50 [37] > 100 µM | GI50 [38] 3.31 µM | GI50 [39] 3.59 µM | GI50 [40] 4.46 µM | GI50 [41] 8.8 µM | GI50 [42] 4.87 µM | GI50 [43] 2.41 µM | GI50 [44] 9.29 µM | GI50 [45] 3.45 µM | GI50 [46] 7.39 µM | GI50 [47] 3.4 µM | GI50 [48] 2.82 µM | GI50 [49] 3.96 µM | GI50 [50] 4.48 µM | GI50 [51] 5.78 µM | GI50 [52] 3.92 µM | GI50 [53] 7.94 µM | GI50 [54] 4.29 µM | GI50 [55] 5.75 µM
14.5 µM: TGI [45]
17.3 µM: TGI [54]
4.8 µM: TGI [20]
18.5 µM: TGI [47]

Reference: PubChem BioAssay (NCI)
